Assay [1] concerns EL4-HHD cells loaded with the peptides. As to the kind of experiment: Cytotoxic T lymphocytes assay after immunization of HHD transgenic mice with peptide-loaded cells. The format is in vivo. The settings on record: compared to negative control peptide ALLCAPSLL; effector-to-target ratio of 50:1 shown. From the text: Cells were loaded separately with individual peptides, washed and injected in four groups: 1-p1028 (SEQ ID NO:13) alone, 2- p1258 (SEQ ID NO:24) alone, 3-pool of peptides: p913 (SEQ ID NO:5), p958 (SEQ ID NO:9), p989 of CD59 (SEQ ID NO:11) and p989 of FLI (SEQ ID NO:12), 4- peptides p1031 (SEQ ID NO:14), p1121 (SEQ ID NO:22) and p1068 (SEQ ID NO:16). Unloaded EL4-HHD or targets cells not loaded with the peptides were used as negative controls. An effector-to-target ratio of 50:1 is shown,
Transgenic mice expressing a single chain HLA-A2.1/Db-β2 m which are double knockout for H-2 Db and for β2 m (HHD mice) were immunized four times intra-peritoneally at 7-day interval with 2×10^6 irradiated (5,000 rad) RMA-S-HHD-B7.1 cells loaded for two hours at 26° C. followed by two hours at 37° C. with 100 μM of the synthetic peptides. Ten days after the last immunization the spleens were removed from the vaccinated mice. Splenocytes were re-stimulated with 100 μM of synthetic peptides for five days. Viable lymphocytes were separated by lympholyte-M (Cadarlane, Hornby, Canada) and resuspended in RPMI-HEPES. Cytotoxic activity was measured as in [26] by admixing the lymphocytes at different ratios with 5×10^3 EL4-HHD cells grown in medium containing ^35S methionine and then loaded wit the synthetic peptides.
To further evaluate the affinity of the peptides to the HLA-A2 and to obtain some insight into their immunogenic potential, selected peptides were tested for their ability to induce an immune response in HLA-A2 transgenic mice. It was assumed that only peptides that could be effectively presented and remain tightly bound to the cells would be capable of inducing an immune response in these mice. The same synthetic peptides that were used for the FACS analysis were used for immunization of the HHD transgenic mice, which express the human HLA-A2.1/Db-β2 m single chain. To immunize the mice, the HHD culture cells were loaded with the different peptides and then injected to the HHD mice. The immune response in the mice was followed by the appearance of CTLs specific for these peptides. Some of the peptides were indeed capable of inducing an immune response, which both authenticate them as MHC bound peptides and gives an indication about their immunogenic potential.

A further assay deals with T1, HLA-A2.1.
T1 construct: expressed in transfected cells; host or cells: RMA-S (murine TAP-2 deficient lymphoma, C57BL/6 origin)
As to the kind of experiment: Stabilization of cell surface HLA-A2.1 by peptide binding (reconstitution into empty MHC on RMA-S-HHD cells, FACS). The class given is cell-based, human. The settings on record: synthetic peptide 100 μM, FACS with W6/32 mAb. How it is done:
Synthetic peptides were added to 10^6 RMA-S-HHD cells to a concentration of 100 μM followed by incubation for two hours at 26° C. and two hours at 37° C. […] The HLA-A2.1 peptide derived from gp100 served as a positive control and unloaded RMA-S-HHD cells as a negative control.
RMA-S-HHD cells were washed three times with PBS followed by incubation overnight in FCS-free IMDM medium at 26° C. Synthetic peptides were added to 10^6 cells at a concentration of 100 μM. The cells were incubated for two hours at 26° C. followed by two hours at 37° C. […] (Sigma).
Another approach to ascertain that the identified peptides were indeed MHC bound peptide antigens, their capacity to bind tightly and stabilize cell surface HLA-A2.1 was tested by reconstitution into empty MHC on the surface of RMA-S-HHD cells.

Consider five sequences from US6867283B2, “Peptides capable of binding to MHC molecules, cells presenting such peptides, and pharmaceutical compositions comprising such peptides and/or cells” (Technion Research & Development Foundation Ltd., priority 2001, dated 2005).

T1 sequence (P61769 with tags, fused parts or gaps): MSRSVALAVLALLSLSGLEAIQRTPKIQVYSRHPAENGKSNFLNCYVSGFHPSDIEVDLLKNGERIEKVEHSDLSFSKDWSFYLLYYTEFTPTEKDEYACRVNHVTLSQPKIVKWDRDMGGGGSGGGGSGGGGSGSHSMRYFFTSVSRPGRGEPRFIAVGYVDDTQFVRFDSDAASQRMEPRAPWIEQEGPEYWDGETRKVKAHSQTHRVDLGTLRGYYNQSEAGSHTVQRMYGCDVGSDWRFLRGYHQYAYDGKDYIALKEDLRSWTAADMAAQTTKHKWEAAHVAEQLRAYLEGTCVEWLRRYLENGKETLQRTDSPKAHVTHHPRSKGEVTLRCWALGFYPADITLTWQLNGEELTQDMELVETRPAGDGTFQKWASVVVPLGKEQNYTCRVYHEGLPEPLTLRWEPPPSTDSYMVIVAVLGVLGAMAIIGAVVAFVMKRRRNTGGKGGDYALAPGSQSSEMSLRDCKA

TLWVDPYEV: in assay [1], the “lysis of peptide-loaded EL4-HHD cells by CTLs from immunized HHD mice” value (from here on “lysis of peptide-loaded EL4-HHD cells”) is listed as “significant lysis”.
For the sequence ALSDHHIYL, the “lysis of peptide-loaded EL4-HHD cells” value in assay [1] is “significant lysis”.
With GLIEKNIEL, the “lysis of peptide-loaded EL4-HHD cells” value in assay [1] is reported as “significant lysis”.
Take GVYDGEEHSV: in the assay with HLA-A2.1, the “binding affinity to HLA-A2 / stabilization of empty MHC on the surface of RMA-S-HHD cells” value was “normal”.
With FLFDGSPTYVL, the “lysis of peptide-loaded EL4-HHD cells” value in assay [1] is reported as “significant lysis”.
